What was measured:
[1] = test system: urease; experiment: Evaluation of urease inhibiting activity in soil, Test A (test compound and urea applied together); assay type: biochemical; set-up: key: A=excellent inhibition; B=partial inhibition; C=no inhibition; conditions: 800 μg test compound and 42.8 mg urea in 20 g air-dry soil (Cazenovia sandy loam pH 7.2), 25° C., 3 days; remaining urea, relative to control without test compound
Procedure: Certain selected organo boron acid compounds were evaluated for urease inhibiting activity. The tests were run in a New York soil (Cazenovia sandy loam pH 7.2). Test A evaluations (run in triplicate) consisted of applying 800 μg of test compound in 5 mL water and 42.8 mg urea in 1 mL water to 20 g air-dry soil in a glass bottle. The bottle was capped with perforated aluminum foil and incubated at 25° C. for 3 days prior to extraction with a 100 mL 2M KCL solution containing 0.5 mg phenylmercuric acetate. The extracts were then analyzed for remaining urea using an autoanalyzer.

[2] = test system: urease; experiment: Evaluation of urease inhibiting activity in soil, Test B (test compound incubated in soil 3 days before urea was added); assay type: biochemical; set-up: key: A=excellent inhibition; B=partial inhibition; C=no inhibition; conditions: 800 μg test compound incubated in 20 g soil (Cazenovia sandy loam pH 7.2) for 3 days before urea was added; analysis 3 days after urea addition; relative to control without test compound

SMILES	% INHIBITION (TEST A) [1]	% INHIBITION (TEST B) [2]
Cl.ONc1ccc(B(O)O)cc1 [XV, 4-Hydroxylaminobenzeneboronic Acid Hydrochloride]	A	A
Nc1ccccc1B(O)O [X, 2-Aminobenzeneboronic Acid]	C	A
OB1ON=Cc2ccccc21 [XVIII, 4-Hydroxy-4,3-boroxaroisoquinoline]	B	B
OB1OCc2ccccc21 [XVII, Borphthalide]	C	A
NC(=O)Nc1cccc(B(O)O)c1 [XVI, 3-Ureidophenylboric Acid]	C	B
Cl.ONc1cccc(B(O)O)c1 [XIV, 3-Hydroxylaminobenzeneboronic Acid Hydrochloride]	B	B
OB(O)c1cccc(O)c1 [XIX, 3-Hydroxybenzeneboronic Acid]	B	A
Nc1ccc(B(O)O)cc1 [XII, 4-Aminobenzeneboronic Acid]	B	A
Cl.ONc1ccccc1B(O)O [XIII, 2-Hydroxylaminobenzeneboronic Acid Hydrochloride]	C	A

From patent publication US4462819A, “Urease inhibited urea based fertilizer compositions containing organo boron acid compounds” (Allied Corporation, priority 1983, dated 1984)
